Literature values, collected in US20220142892A1, “PROCESS FOR THE PREPARATION AND USE OF HAIR TREATMENT COMPOSITIONS CONTAINING ORGANIC C1-C6 ALKOXY SILANES” (Henkel AG & Co. KGaA, priority 2019, published 2022).

Conditions: 25° C.

Row | solubility in water (in words) | SMILES | solubility in water
1 |  | O=S(=O)([O-])c1ccc(N=Nc2c(O)ccc3ccccc23)cc1.[Na+] [Acid Orange 7, sodium salt of 4-[(2-hydroxy-1-naphthyl)azo]benzene sulphonate] | more than 7 g/L
2 |  | Nc1cc(S(=O)(=O)[O-])cc2cc(S(=O)(=O)[O-])c(N=Nc3ccccc3)c(O)c12.[Na+].[Na+] [Acid Red 33, diantrium salt of 5-amino-4-hydroxy-3-(phenylazo)-naphthalene-2,7-disulphonate] | 2500 µg/mL
3 |  | O=C([O-])c1c(Cl)c(Cl)c(Cl)c(Cl)c1-c1c2c(Br)cc(=O)c(Br)c-2oc2c(Br)c(O)cc(Br)c12.O=C([O-])c1c(Cl)c(Cl)c(Cl)c(Cl)c1-c1c2c(Br)cc(=O)c(Br)c-2oc2c(Br)c(O)cc(Br)c12.[Na+].[Na+] [Acid Red 92, disodium salt of 3,4,5,6-tetrachloro-2-(1,4,5,8-tetrabromo-6-hydroxy-3-oxoxanthen-9-yl)benzoic acid] | greater than 10 g/L
4 | highly soluble | O=C([O-])C1=NN(c2ccc(S(=O)(=O)[O-])cc2)C(=O)C1N=Nc1ccc(S(=O)(=O)[O-])cc1.[Na+].[Na+].[Na+] (stereo not shown) [Acid Yellow 23, trisodium salt of 4,5-dihydro-5-oxo-1-(4-sulfophenyl)-4-((4-sulfophenyl)azo)-1H-pyrazole-3-carboxylic acid] | 
